What was measured:
MphR = assay: MphR-based biosensor, derepression by ligand; format: biochemical, E. coli; details: fixed concentration of MphR; erythromycin 0 nM-2.5 uM; FIG. 10
Source text: (§1) Here we present two biosensors built with the described mechanism above. As shown in FIGS. 7A-7B, the aTF TetR (SEQ ID NO: 21) can be used to build a tetracycline biosensor using its corresponding operator sequence in the DNA template and partially in the IP (SEQ ID NO: 19). Increasing concentrations of TetR decrease the rate of the reaction as there is less DNA template accessible to HgaI. When the system is repressed by a given concentration of TetR, it can be derepressed by the ligand tetracycline. The rate of the reaction is proportional to the concentration of tetracycline within a certain concentration range (FIG. 8). Similarly, a circuit using the aTF MphR (SEQ ID NO: 22) with its corresponding operator sequence (SEQ ID NOs: 17 and 18) in the DNA template and partially in the IP (SEQ ID NO: 20) can be used to sense macrolides.
(§2) HgaI/Toehold-Mediated Strand Displacement Reactions.

[1] = test system: DNA template (S) with MphR operator sequence; assay: Titration of MphR in the HgaI/toehold-mediated strand displacement reaction; format: biochemical; details: absence of erythromycin; MphR 0 nM-3 uM; FIG. 9B
Source text: FIG. 9A illustrates the components of the biosensor, indicating the DNA template (S) and Invading Probe (IP) sequences and modifications.
as §1, §2

| Molecule | response of the MphR-repressed reaction to the ligand (MphR) | effect of increasing aTF concentration on reaction rate [1] |
| --- | --- | --- |
| CC[C@H]1OC(=O)[C@H](C)[C@@H](O[C@H]2C[C@@](C)(OC)[C@@H](O)[C@H](C)O2)[C@H](C)[C@@H](O[C@@H]2O[C@H](C)C[C@H](N(C)C)[C@H]2O)[C@](C)(O)C[C@@H](C)C(=O)[C@H](C)[C@@H](O)[C@]1(C)O [erythromycin] | proportionally higher reaction rates | – |
| MphR: aTF used to sense macrolides; SEQ ID NO: 22 (protein, listed as Escherichia coli) MPRPKLKSDDEVLEAATVVLKRCGPIEFTLSGVAKEVGLSRAALIQRFTNRDTLLVRMMERGVEQVRHYLNAIPIGAGPQGLWEFLQVLVRSMNTRNDFSVNYLISWYELQVPELRTLAIQRNRAVVEGIRKRLPPGAPAAAELLLHSVIAGATMQWAVDPDGELADHVLAQIAAILCLMFPEHDDFQLLQAHA | – | decrease of the reaction rate |

From patent US11965204B2, “Detection of analytes by enzyme-mediated strand displacement reactions” (priority 2020, dated 2024)
